Holding throughout (type): in vivo
Experiment [1] deals with ICR mice. Nature of the experiment: Anti-epilepsy activity, scPTZ test, mouse. The settings on record: for ED50: ip. The source says: In this experiment, each test compound sample was formulated as described in Biological Experimental Example I, and administered intraperitoneally to the test animals (mice; ICR or Rat; SD); Experimental animals, male ICR mice and male SD rats, were purchased from OrientBio or Nara biotech, Korea, and housed 4-5 mice per a cage for 4-5 days. The range of mice body weight was used between 19 and 26 grams and range of rats body weight was used between 100 and 130 grams. After Peak time (0.5, 1, 2 and 4 hr) from the administration, PTZ (Pentylenetetrazol) was administered subcutaneously in the concentration capable of inducing 97% intermittent convulsions (mice: 76-110 mg/kg·bw, 10 μl/g, or rats: 79-110 mg/kg·bw, 2 μl/g). If clonic seizure was not observed for at least 30 minutes in the PTZ administered animal, it can be considered that the test compound has anti-epilepsy activity. The median effective dose (ED50) is determined using 6 animals per a concentration (total three different concen-trations), and calculated by Litchfield and Wicoxon log-probit method which is a dose-response relationship.

The test system of a further experiment is Sprague-Dawley rats. Nature of the experiment: Antiallodynic activity on Complete Freund's Adjuvant (CFA)-induced inflammatory pain model. The note with it: intraperitoneally; for response vs control in vivo at 50 mg/kg / ED50: Rattus norvegicus, ip; for response vs control in vivo at 50 mg/kg: read-out: CFA-induced pain model efficacy %; for ED50: at peak time.

Another experiment relates to SD rats. Nature of the experiment: Anti-epilepsy activity, MES test, rat. The settings on record: for ED50: Rattus norvegicus, po. In outline: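 Maximal electroshock delivered through corneal electrodes at 60 Hz for 0.2 s: 50 mA for male ICR mice (19–25 g), 150 mA for male SD rats (100–130 g). Compounds given orally in 30% PEG 400 or 20% Tween 80 in saline, tested at peak time, three doses per compound. ED50 for seizure protection derived by Litchfield–Wilcoxon log-probit analysis.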

Experiment [2] has as its system ICR mice. Nature of the experiment: Chemical induced seizure model (PIC, picrotoxin). The settings on record: for ED50: Mus musculus, ip. The method, then:
Picrotoxin (PIC) were used to induce the behavioral seizures in the experiments. Male ICR mice (purchased from Orient Bio Inc. Korea) of body weight 19-26 g (mice) were used for these studies. The test materials were administered intraperitoneal (ip) route in a volume of 10 ul/g (mice) weight in mice, respectively. Pharmacological effects of the test materials were evaluated to compared test groups (n=6) with a control group (n=6). Control group was administrated vehicle, only. The peak time was determined by administration of test material's random dose for 0.5, 1, 2, 4 hour. The time that the most protect was defined as a peak time and ED50 was determined by other dose administration at the peak time. Chemical (PIC) was dissolved in 0.9% saline and administered subcutaneously (s.c.) at its CD97 (convulsive dose 97%), the dose of Chemical (PIC) that produced clonic seizures in 97% into a loose fold of skin in the midline of the neck in a volume of 10 ul/g (mice) body weight. The animals were then transferred to observation cages and observed continuously for 45 min (PIC). Clonic seizure was elicited in approximately 97% of control group. Protection was defined as a complete absence of clonic seizure over the 45-min observation period. The effective dose of compound necessary to protect against generalized convulsive seizures to 50% of controls (i.e. ED50) was determined by log probit analysis using SPSS software program (SPSS Inc.). (Reference; White H. S., J. H. Woodhead, K. S. Wilcox, J. P. Stables, H. J. Kupferberg, and H. H. Wolf. General Principles; Discovery and Preclinical De-velopment of Antiepileptic Drugs. In: R. H. Levy, R. H. Mattson, B. S. Meldrum, and E. Perucca, eds. Antiepileptic Drugs, 5th Ed. Lippincott Williams & Wilkins, Philadelphia 2002: pp. 36-48.) The obtained results are shown in following Table 10.

Molecules are shown by their SMILES.

As a reminder, the ED50 is the midpoint of the dose-response relation.

In the case of `C[C@@H](OS(N)(=O)=O)[C@H](O)c1ccccc1Cl` [Example 2, (1R, 2R)-1-(2-chlorophenyl)-1-hydroxypropan-2-yl sulfamate], in the experiment on ICR mice [1], the “scPTZ test (ip) Peak time” value came out at 1 h and it took a dose of 18.2 mg/kg to reach the 50% effect level (ED50). In addition, in the experiment with Sprague-Dawley rats, the response vs control in vivo at 50 mg/kg was 23% and the “CFA-induced pain model Peak Time” value worked out at 1 h. For the same compound, in the experiment on SD rats, the “MES test (po) Peak time” value is given as “(2 h)” and the ED50 worked out at 5 mg/kg. In the experiment on ICR mice [2], the “PIC(ip) Peak Time” value is listed as 1 h and the ED50 is 24.1 mg/kg.

For `COCO[C@H](c1ccccc1Cl)[C@@H](C)OS(N)(=O)=O` [Example 70, (1R, 2R)-1-(2-chlorophenyl)-1-(methoxymethoxy)propan-2-yl sulfamate], in the experiment on ICR mice [1], the “scPTZ test (ip) Peak time” value is given as 2 h and the ED50 stood at 50.2 mg/kg. Also, in the experiment with Sprague-Dawley rats, the response vs control in vivo at 50 mg/kg came out at 23.7% and the “CFA-induced pain model Peak Time” value worked out at 0.5 h. In the experiment with SD rats, the “MES test (po) Peak time” value is on record as “(1 h)” and it took a dose of 46.6 mg/kg to reach the 50% effect level (ED50).

On to `C[C@@H](OS(N)(=O)=O)[C@H](O)c1c(Cl)cccc1Cl` [Example 8, (1R, 2R)-1-(2,6-dichlorophenyl)-1-hydroxypropan-2-yl sulfamate], for which, in the experiment on ICR mice [1], the “scPTZ test (ip) Peak time” value amounted to 1 h and the ED50 is 13.5 mg/kg. Also, in the experiment on Sprague-Dawley rats, the median effective dose (ED50) is 52.7 mg/kg and the “CFA-induced pain model Peak Time” value is reported as 0.5 h. In the experiment with SD rats, the “MES test (po) Peak time” value is given as “(1 h)” and the 50% effect level (ED50) was put at a dose of 24 mg/kg. In the experiment on ICR mice [2], the “PIC(ip) Peak Time” value is on record as 1 h and the ED50 came to 73.9 mg/kg.

`C[C@H](OS(N)(=O)=O)[C@@H](O)c1c(Cl)cccc1Cl` [Example 7, (1S, 2S)-1-(2,6-dichlorophenyl)-1-hydroxypropan-2-yl sulfamate]: in the experiment on ICR mice [1], the “scPTZ test (ip) Peak time” value came out at 0.5 h and it took a dose of 8.6 mg/kg to reach the 50% effect level (ED50). For the same compound, in the experiment with Sprague-Dawley rats, the ED50 is 31.9 mg/kg and the “CFA-induced pain model Peak Time” value stood at 1 h. Moreover, in the experiment on SD rats, the “MES test (po) Peak time” value is reported as “(2 h)” and the ED50 turned out to be 23.5 mg/kg. For the same compound, in the experiment with ICR mice [2], the “PIC(ip) Peak Time” value is on record as 0.5 h and it took a dose of 28.5 mg/kg to reach the 50% effect level (ED50).

The values above are taken from US10351519B2, “Sulfamate derivative compounds, processes for preparing them and their uses” (BIO-PHARM SOLUTIONS CO., LTD., priority 2016, dated 2019).
